Earlier results, collected in patent US20210069214A1, “TOPICAL COMPOSITIONS COMPRISING A CORTICOSTEROID FOR THE TREATMENT OF PSORIASIS IN PEDIATRIC PATIENTS” (priority 2019, published 2021).

System: HPA axis
Details: topical

CCC(=O)O[C@]1(C(=O)CCl)[C@@H](C)C[C@H]2[C@@H]3CCC4=CC(=O)C=C[C@]4(C)[C@@]3(F)[C@@H](O)C[C@@]21C [Clobetasol propionate, [17-(2′-chloroacetyl)-9-fluoro-11-hydroxy-10,13,16-trimethyl-3-oxo-6,7,8,11,12,14,15,16-octahydrocyclopenta[a]phenanthren-17-yl]propanoate]
dose that suppresses the HPA axis (as low as): 2 grams per day
